Here are results for five compounds from patent US10689367B2, “Triazole pyridyl compounds as agonists of the APJ receptor” (AMGEN INC., priority 2016, dated 2020).

Chain of human APJ receptor (P35414 whole entry): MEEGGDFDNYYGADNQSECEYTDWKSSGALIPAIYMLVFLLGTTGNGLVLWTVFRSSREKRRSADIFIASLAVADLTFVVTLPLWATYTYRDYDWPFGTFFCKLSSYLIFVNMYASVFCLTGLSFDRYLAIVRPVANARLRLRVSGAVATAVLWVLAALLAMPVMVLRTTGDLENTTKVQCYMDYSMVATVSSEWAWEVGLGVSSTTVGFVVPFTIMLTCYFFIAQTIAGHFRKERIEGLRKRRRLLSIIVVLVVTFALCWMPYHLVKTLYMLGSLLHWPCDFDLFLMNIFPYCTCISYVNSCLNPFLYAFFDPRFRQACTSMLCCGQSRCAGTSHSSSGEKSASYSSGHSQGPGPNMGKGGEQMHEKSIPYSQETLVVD

The target in the assay is human APJ receptor (Homo sapiens (Human), UniProt P35414). Kind of assay: [35S]GTPγS binding assay on membranes from CHO cells stably expressing human APJ receptor. It counts as biochemical. Particulars: membranes of CHO cells stably expressing human APJ receptor, read-out: Activity hAPJ SPA EC50 IP. The method, boiled down:
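[35S]GTPγS binding measured on membranes from CHO cells stably expressing FLAG-tagged human APJ, with GDP, MgCl2 and NaCl levels optimized beforehand. Incubation 90 min at RT, imager read-out; EC50 from non-linear regression, averaged over several independent experiments.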
In general terms: Binding of GTPγS marks nucleotide exchange on a G protein.
By EC50 is commonly meant the concentration giving half of the maximal effect. With `COc1cccc(-c2nnc(NS(=O)(=O)[C@@H](C)[C@H](C)c3ncc(Cl)cn3)n2[C@@H](C)c2ncc(C)o2)n1` (single isomer, unassigned) [Example 258.0, (2S,3R)-3-(5-chloro-2-pyrimidinyl)-N-(5-(6-methoxy-2-pyridinyl)-4-((1S)-1-(5-methyl-1,3-oxazol-2-yl)ethyl)-4H-1,2,4-triazol-3-yl)-2-butanesulfonamide or (2S,3R)-3-(5-chloro-2-pyrimidinyl)-N-(5-(6-methoxy-2-pyridinyl)-4-((1R)-1-(5-methyl-1,3-oxazol-2-yl)ethyl)-4H-1,2,4-triazol-3-yl)-2-butanesulfonamide], the EC50 stood at 0.88 nM.

In the case of `COc1cccc(-c2nnc(NS(=O)(=O)[C@@H](C)[C@@H](OC(C)C)c3ncc(C)cn3)n2[C@@H](C)c2noc(C)n2)n1` (single isomer, unassigned) [Example 259.0, (1S,2S)-N-(5-(6-methoxy-2-pyridinyl)-4-((1R)-1-(5-methyl-1,2,4-oxadiazol-3-yl)ethyl)-4H-1,2,4-triazol-3-yl)-1-(5-methyl-2-pyrimidinyl)-1-(2-propanyloxy)-2-propanesulfonamide or (1S,2S)-N-(5-(6-methoxy-2-pyridinyl)-4-((1S)-1-(5-methyl-1,2,4-oxadiazol-3-yl)ethyl)-4H-1,2,4-triazol-3-yl)-1-(5-methyl-2-pyrimidinyl)-1-(2-propanyloxy)-2-propanesulfonamide], the EC50 came out at 8.7 nM.

As to `COc1cccc(-c2nnc(NS(=O)(=O)[C@@H](C)[C@H](OC)c3ncc(Cl)cn3)n2[C@@H](C)c2ccon2)n1` (single isomer, unassigned) [Example 264.0, (1R,2S)-1-(5-chloro-2-pyrimidinyl)-1-methoxy-N-(5-(6-methoxy-2-pyridinyl)-4-((1R)-1-(1,2-oxazol-3-yl)ethyl)-4H-1,2,4-triazol-3-yl)-2-propanesulfonamide or (1R,2S)-1-(5-chloro-2-pyrimidinyl)-1-methoxy-N-(5-(6-methoxy-2-pyridinyl)-4-((1S)-1-(1,2-oxazol-3-yl)ethyl)-4H-1,2,4-triazol-3-yl)-2-propanesulfonamide], the EC50 was 2.9 nM.

Consider `COc1cccc(-c2nnc(NS(=O)(=O)[C@@H](C)[C@H](OC)c3ncc(Cl)cn3)n2[C@@H](C)c2ccon2)n1` (single isomer, unassigned) [Example 265.0, (1R,2S)-1-(5-chloro-2-pyrimidinyl)-1-methoxy-N-(5-(6-methoxy-2-pyridinyl)-4-((1R)-1-(1,2-oxazol-3-yl)ethyl)-4H-1,2,4-triazol-3-yl)-2-propanesulfonamide or (1R,2S)-1-(5-chloro-2-pyrimidinyl)-1-methoxy-N-(5-(6-methoxy-2-pyridinyl)-4-((1S)-1-(1,2-oxazol-3-yl)ethyl)-4H-1,2,4-triazol-3-yl)-2-propanesulfonamide], for which the EC50 is 0.92 nM.

As for `COc1cccc(-c2nnc(NS(=O)(=O)[C@@H](C)[C@@H](OC(C)C)c3ncc(C)cn3)n2[C@@H](C)c2ccon2)n1` (single isomer, unassigned) [Example 269.0, (1S,2S)-1-isopropoxy-N-(4-((R)-1-(isoxazol-3-yl)ethyl)-5-(6-methoxypyridin-2-yl)-4H-1,2,4-triazol-3-yl)-1-(5-methylpyrimidin-2-yl)propane-2-sulfonamide or (1S,2S)-1-isopropoxy-N-(4-((S)-1-(isoxazol-3-yl)ethyl)-5-(6-methoxypyridin-2-yl)-4H-1,2,4-triazol-3-yl)-1-(5-methylpyrimidin-2-yl)propane-2-sulfonamide], the EC50 turned out to be 17 nM.
